The values that follow come from patent publication US9061038B2, “Doxorubicin adjuvants to reduce toxicity and methods for using the same” (Tosk, Incorporated, priority 2008, dated 2015).

For data set [1] the following is noted: cited from earlier work.
Data set [2] concerns CD-1 mice. The experiment in a line: Mouse study: protection against doxorubicin-induced cardiac damage, plasma cardiac troponin I (cTnI) ELISA. Type of data set: in vivo. As to conditions: 25 mg/kg doxorubicin ip, 1.0 or 3.0 mg/kg TK-115339 ip 3 hours before and after doxorubicin, single ip on days 2-4, plasma on day 5 (96 hours). From the text: To this end, a representative nitrone test article (TK-115339) was examined for its ability to mitigate one aspect of doxorubicin-induced toxicity, cardiac damage, in CD-1 mice as determined by concentration of cardiac troponin I (cTnI) in animal plasma (Li et al., Circulation, 113:535-43 (2006) and Hou et al., J Lab Clin Med., 146: 299-303 (2005). Doxorubicin was purchased from Xinchem Corporation (China). TK-115339 was synthesized at the University of California, Santa Cruz. […]
On days 2, 3 and 4, the mice received a single ip injection of either 1 or 3 mg/kg of TK-115339. […] The plasma samples were analyzed for cTnI using a commercial ELISA test according to the manufacture's recommendations (Life Diagnostics, Inc., Cat. No. 2010-1-HSP).
(§1) Data was analyzed using SPSS software (SPSS Inc., Chicago, Ill.). […]
Representative of the data shown in FIG. 1, mice (10 animals/treatment group) were dosed ip on Day 1 with vehicle (pH 7.4 buffered saline), 25 mg/kg doxorubicin ip or 25 mg/kg doxorubicin ip plus 1.0 or 3.0 mg/kg TK-115339 3 hours before, and after, the doxorubicin treatment. […] The plasma samples were analyzed for cTnI using a commercial ELISA test for troponin I. Boxplots of troponin findings from the study are provided in FIG. 1.
(An ELISA detects its analyte on a solid surface through an enzyme-linked reagent.)

In data set [3] the test system is CD-1 mice. The experiment in a line: Mouse dose response study: protection against doxorubicin-associated cardiotoxicity, plasma cTnI ELISA. The note with it: 25 mg/kg doxorubicin ip, 0.0001, 0.001, 0.01, 0.1 or 1.0 mg/kg TK-115339 ip 3 hours before and after doxorubicin, plasma on day 5. Type of data set: in vivo. Here is the method:
The aim of this study was to establish the dose response for the protection afforded by TK-115339 against doxorubicin-associated cardiotoxicity.
Eight to ten-week-old male CD-1 male mice (Charles River, Hollister, Calif.) weighing 30-35 g were housed in a climate-controlled environment, the light was controlled (light:dark, 12:12), and the animals were given food and water ad libitum. The animals (12 animals/treatment group) were dosed ip (200 μl volume) on day 1 with 25 mg/kg doxorubicin or 25 mg/kg doxorubicin plus 0.0001, 0.001, 0.01, 0.1 or 1.0 mg/kg TK-115339 3 hours before, and after, the doxorubicin treatment. […]
On days 2 and 3 the mice received a single ip injection of either saline (doxorubicin alone group) or […] (dose ranging experimental groups). […] The plasma samples were analyzed for cTnI using a commercial ELISA test according to the manufacture's recommendations (Life Diagnostics, Inc., Cat. No. 2010-1-HSP).
as §1
Representative of the data shown in FIG. 2, mice (12 animals/treatment group) were dosed ip on Day 1 with 25 mg/kg doxorubicin or 25 mg/kg doxorubicin plus 0.0001, 0.001, 0.01, 0.1 or 1.0 mg/kg TK-115339 3 hours before, and after, the doxorubicin treatment. […] The plasma samples were analyzed for cTnI using a commercial ELISA test.

In data set [4] the test system is CCRF-CEM human cancer cells. The experiment in a line: Cell culture study: interference with doxorubicin activity, alamarBlue cell viability. As to conditions: doxorubicin 0.01, 0.1, 1.0 μM with TK-115339 0.01, 0.1, 1.0 μM, 72 hour incubation. Type of data set: cell-based. The protocol: The aim of this study was to examine whether or not a representative nitrone test article, TK-115339, interfered with the desired activity of doxorubicin in vitro.
The tumor cell line for the cell culture study was CCRF-CEM (Human T-ALL, CCL-119) from ATCC, and cells were cultured in accordance with the product information sheets replacing 75 cm^2 culture flasks with 56.7 cm^2 Petri dishes and adding 1% penicillin-streptomycin solution and 1% GlutaMAX™ to the culture medium. The compound, TK-115339, was dissolved in DMSO then diluted to obtain initial working solutions of 1, 10 and 100 μM. […]
Cells were thawed according to ATCC protocol and plated in 10 mL of sterile filtered growth medium. […] Doxorubicin was evaluated at concentrations of 0.01, 0.1 and 1.0 μM alone or in combination with TK-115339 at concentrations of 0.01, 0.1 and 1.0 μM. […]
At the end of incubation, cell viability was determined by optical absorbance of alamarBlue® at λ=570 and 600 nm in accordance using a standard protocol provided by the vendor, Biosource. Data was analyzed using SPSS 14.0 software (SPSS Inc., Chicago, Ill.). Statistical significance of the differences between experimental groups was calculated by using one-way ANOVA followed by a Bonferroni post-hoc analysis.
Cells were prepared and tested as described above. […] For each condition, 12 replicates were analyzed. […]
On the technique in general: Alamar Blue is a resazurin reagent that responds to reducing activity.

Entries after “also recorded” stand apart in the source; their conditions may differ. Where a name gives a salt, the structure may show the parent alone.

Regarding `COc1cccc2c1C(=O)c1c(O)c3c(c(O)c1C2=O)C[C@@](O)(C(=O)CO)C[C@@H]3O[C@H]1C[C@H](N)[C@H](O)[C@H](C)O1` [Doxorubicin hydrochloride, 5,12-naphthacenedione,10-[(3-amino-2,3,6-trideoxy-α-L-Iyxo-hexopyranosyl)oxy]-7,8,9,10-tetrahydro-6,8,11-trihydroxy-8-(hydroxyacetyl)-1-methoxy-, hydrochloride, (8S-cis)-(9Cl)], the solubility in methanol result in data set [1] (methanol) was “slightly soluble in methanol”. Besides, the solubility in water entry in data set [1] (water) is given as “soluble in water”.

Turning to `CC(C)(C)[N+]([O-])=Cc1ccc(SSc2ccc(C=[N+]([O-])C(C)(C)C)cc2)cc1` [TK-115339, symmetrical disulfide conjugate of alpha-(4-sulfanylphenyl)-N-tert-butylnitrone], the “protection from doxorubicin-induced cardiac damage estimated by plasma cardiac troponin I (cTnI)” value with CD-1 mice [2] is “mitigate one aspect of doxorubicin-induced toxicity, cardiac damage in CD-1 mice; also recorded: protects mice from doxorubicin-induced cardiac damage”. In addition, the “dose response of protection from doxorubicin-induced cardiac damage (plasma cardiac troponin)” value with CD-1 mice [3] was “dose-response for the protection; also recorded: dose proportional”. Moreover, in data set [4], the “interference with tumor cell anti-growth activity (cytotoxicity) of doxorubicin, cell viability” value is recorded as “does not interfere with the toxicity of doxorubicin; also recorded: does not interfere with the tumor cell anti-growth activity of doxorubicin”.
